This experiment has as its target T1, mature Arabidopsis BIO3-BIO1 (SEQ ID NO: 21) (Arabidopsis thaliana, UniProt B0F481).
T1 construct: 6xHis (N); thrombin cleavage site (N); made in house; host or cells: E. coli BL21 (DE3) bioA
T1 sequence (B0F481 with tags, fused parts or gaps): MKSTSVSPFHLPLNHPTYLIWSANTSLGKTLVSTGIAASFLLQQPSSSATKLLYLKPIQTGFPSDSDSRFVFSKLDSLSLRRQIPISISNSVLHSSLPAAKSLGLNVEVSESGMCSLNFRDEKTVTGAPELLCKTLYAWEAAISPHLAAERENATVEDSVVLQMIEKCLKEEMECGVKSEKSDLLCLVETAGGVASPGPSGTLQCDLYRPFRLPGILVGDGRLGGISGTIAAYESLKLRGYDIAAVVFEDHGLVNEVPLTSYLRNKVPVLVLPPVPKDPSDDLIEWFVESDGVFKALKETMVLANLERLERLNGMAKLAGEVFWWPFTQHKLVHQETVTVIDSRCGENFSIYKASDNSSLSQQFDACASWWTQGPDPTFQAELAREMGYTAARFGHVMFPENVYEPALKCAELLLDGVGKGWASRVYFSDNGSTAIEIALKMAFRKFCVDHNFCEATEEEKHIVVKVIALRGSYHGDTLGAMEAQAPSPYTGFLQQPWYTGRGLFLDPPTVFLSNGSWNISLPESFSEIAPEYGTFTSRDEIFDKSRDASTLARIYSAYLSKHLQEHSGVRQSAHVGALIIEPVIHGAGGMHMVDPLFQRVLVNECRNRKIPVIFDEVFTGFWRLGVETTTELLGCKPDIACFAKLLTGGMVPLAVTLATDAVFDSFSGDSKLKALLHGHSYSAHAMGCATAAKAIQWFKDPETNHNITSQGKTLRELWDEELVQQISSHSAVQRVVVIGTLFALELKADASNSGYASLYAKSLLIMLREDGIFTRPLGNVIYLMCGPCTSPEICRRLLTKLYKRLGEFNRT
The experiment can be described thus: DAPA-AT assay with spermidine as amine donor, fluorescent detection of DAPA:o-phthalaldehyde. The class given is biochemical. The conditions noted are these: 10 μM spermidine, 1 μM KAPA, 60 minutes at 20° C.; for inhibition at 0.2 µM: inhibitor concentration 0.2 μM; for inhibition at 1 µM: inhibitor concentration 1 μM; for inhibition at 5 µM: inhibitor concentration 5 μM; for inhibition at 20 µM: inhibitor concentration 20 μM; for inhibition at 100 µM: inhibitor concentration 100 μM. The protocol: A pET-24 plasmid containing a DNA sequence encoding BIO3-BIO1 derived from Arabidopsis thaliana, codon-optimised for expression in E. coli, with the predicted N-terminal mitochondrial transit peptide removed and with an N-terminal 6×His-tag and thrombin cleavage site and under control of a T7 promoter (SEQ ID NO:38), was synthesised by Twist Bioscience. The plasmid was expressed in E. coli BL21 (DE3) bioA with 50 μg/mL kanamycin and 25 μg/mL chloramphenicol selection. Overnight cultures grown at 37° C. were used to inoculate 8×500 mL AIM in shake flasks at a ratio of 1:100. Cultures were grown at 37° C., 200 rpm for 3.5 hours and then overnight at 20° C. Cells were harvested by centrifugation for 30 minutes at 10 000 g. Cells were stored at −80° C. until extraction. 30 g of cell pellet from was thawed in 120 mL of IMAC buffer A (20 mM HEPES pH7.5, 25 mM imidazole, 500 mM sodium chloride, 0.15 mM pyridoxal phosphate, 0.5 mM TCEP, 1×complete Protease Inhibitor Tablet (Roche)). The resuspension was passed through a cell disrupter at 18 000 PSI and centrifuged at 50 000 g for 25 minutes at 4° C. The His-tagged BIO3-BIO1 protein was purified from the extract supernatant on an ÄKTA avant chromatography system (Cytiva) using a HisTrap FF column and eluted in IMAC buffer B ((20 mM HEPES pH7.5, 500 mM imidazole, 500 mM sodium chloride, 0.15 mM pyridoxal phosphate, 0.5 mM TCEP) followed by SEC using a HiLoad 26/60 Superdex200 column in SEC buffer (25 mM HEPES pH7.5, 150 mM sodium chloride, 0.15 mM pyridoxal phosphate, 0.5 mM TCEP). Protein concentration was measured and calculated using the absorbance at 280 nm. Extracts were diluted 1 in 4 and 10 uL was analysed by SDS PAGE.
To measure DAPA-AT enzyme activity in the presence of herbicide (candidate compound), 0.5 μL of the herbicide was incubated with 20 μL of enzyme mix (100 mM EPPS pH 8.6, 0.1 mM pyridoxal phosphate, 0.1 mg/mL BSA, 25 nM BIO3-BIO1 enzyme) for 10 minutes at 20° C. in a well of a 384-well black plate, followed by the addition of 20 μL of substrate mix (final concentration of 100 mM EPPS pH 8.6, 0.1 mM pyridoxal phosphate, 0.1 mg/mL BSA, 10 μM spermidine, 1 μM KAPA, 100 mM NaHCO3) and further incubation for 60 minutes at 20° C. The reaction was terminated by the addition of 50 μL of derivatisation mix consisting of 185 mM borate NaOH pH 9.4, 3 mM o-phthalaldehyde, 6 mM β-mercaptoethanol, 22.5% (v/v) ethanol, 3% (v/v) methanol. The fluorescent product produced by the reaction of DAPA with o-phthalaldehyde and β-mercaptoethanol was measured at 470 nm after excitation at 410 nm. The percentage inhibition was calculated using the equation, % inhibition=100×((((MAX−MIN)−(X−MIN))/(MAX−MIN))), where MIN and MAX are the average of the minimum reaction and maximum reaction controls and X is the test sample. Compounds are typically added directly to the assay plate in a serial 3× dilution from a top final concentration of 100 μM over 10 different concentrations. The percent inhibition values are fitted to a dose-response using the equation Y=Bottom+(Top−Bottom)/(1+((X^Hill Slope)/(IC50^Hill Slope))) to calculate the compound concentration that gives 50% inhibition (IC50).

`CCn1c(C)c(-c2cc(OC(F)(F)F)ccc2Cl)c(=O)c(C(=O)O)c1-c1ccc(Cl)c(Cl)c1` [Compound D, 5-[2-chloro-5-(trifluoromethoxy)phenyl]-2-(3,4-dichlorophenyl)-1-ethyl-6-methyl-4-oxo-pyridine-3-carboxylic acid] came in with an inhibition at 0.2 µM of 51%, an inhibition at 1 µM of 84% and an inhibition at 5 µM of 95%.
Compound `C[C@@H](N)COc1cccc(C(=O)O)n1` [Compound E, [(1R)-2-(6-carboxypyridin-1-ium-2-yl)oxy-1-methyl-ethyl]ammonium; dichloride] yielded an inhibition at 20 µM of 80% and an inhibition at 100 µM of 94%.
For `CCOC(=O)c1nn(-c2ccc3c(c2)OC(F)(F)C(F)(F)O3)c2cccc(C(C)=O)c2c1=O` [Compound A, ethyl 5-acetyl-4-oxo-1-(2,2,3,3-tetrafluoro-1,4-benzodioxin-6-yl)cinnoline-3-carboxylate], the inhibition at 1 µM was 59% and the inhibition at 5 µM was found to be 84%.
Taken in the same sequence, the figures for `CCn1c(-c2ccc(Cl)c(Cl)c2)c(C(=O)O)c(=O)c2cc(F)ccc21` [Compound M, 2-(3,4-dichlorophenyl)-1-ethyl-6-fluoro-4-oxo-quinoline-3-carboxylic acid] were 58% and 82%.
In the case of `CCn1c(Cn2ccc(C(F)(F)F)n2)cc(=O)c(C(=O)O)c1-c1ccc(Cl)c(Cl)c1` [Compound L, 2-(3,4-dichlorophenyl)-1-ethyl-4-oxo-6-[[3-(trifluoromethyl)pyrazol-1-yl]methyl]pyridine-3-carboxylic acid], the inhibition at 0.2 µM was determined as 6%, the inhibition at 1 µM came to 44% and the inhibition at 5 µM came to 83%.
`CCn1c(C)c(-c2ccc(F)cc2F)c(=O)c(C(=O)O)c1-c1ccc(Cl)c(Cl)c1` [Compound C, 2-(3,4-dichlorophenyl)-5-(2,4-difluorophenyl)-1-ethyl-6-methyl-4-oxo-pyridine-3-carboxylic acid] showed an inhibition at 0.2 µM of 29%, an inhibition at 1 µM of 64% and an inhibition at 5 µM of 85%.
In the case of `CC(O)C(N)CCCCC(=O)O` (centres unmarked) [Compound B, [5-carboxy-1-(1-hydroxyethyl)pentyl]ammonium; chloride], at 20 µM the inhibition was 84% and the inhibition at 100 µM stood at 95%.
